Reference: US10064838B2, “Method for treating tau-associated diseases using tetrahydropyranol derivatives” (NATIONAL TAIWAN NORMAL UNIVERSITY, priority 2016, dated 2018)

How the values were obtained:
[1] = Cytotoxicity in 293 cells expressing ΔK280 tauRD-DsRed fusion protein; format: cell-based; conditions: human, ΔK280 tauRD-DsRed 293 cells
ΔK280 tauRD-DsRed = target: T1, ΔK280 tauRD-DsRed (Homo sapiens, UniProt P10636, DEL597-597); assay: Inhibition of ΔK280 tauRD-DsRed aggregation (DsRed fluorescence, high content analysis); format: cell-based; conditions: 8 h pretreatment, Dox 3 days, ΔK280 tauRD-DsRed 293 cells
T1 construct: tauRD: Gln^244-Glu^372 of the longest tau^441 isoform; expressed in transfected cells; host or cells: HEK-293 (Tet-On, doxycycline-induced)
Source text: We used human embryonic kidney HEK-293 (cultured with DMEM supplemented with 10% FBS) and neuroblastoma SH-SY5Y (cultured with DMEM F12 supplemented with 10% FBS) cells expressing a DsRed-tagged pro-aggregation mutant (ΔK280) of the C-terminal repeat domain of tau (tauRD: Gln^244-Glu^372 of the longest tau^441 isoform). The recombinant tauRD-DsRed construct was under the control of a hybrid human cytomegalovirus (CMV)/TetO2 promoter that can be induced by adding doxycycline. The Tet-On ΔK280 tauRD-DsRed 293 and SH-SY5Y cells were grown in medium containing blasticidin (5 μg/mL) and hygromycin (100 μg/mL) and were used for the following evaluation.
ΔK280 tauRD-DsRed 293 cells were seeded into 96-well plates, grown for 24 h, and pretreated with 0.1, 1, 10 μM of congo red (a known tau aggregation inhibitor), compound (A), compound (B), and compound (C) for 8 h. Then doxycycline (Dox; 1 μg/mL) was added for 3 days to induce ΔK280 tauRD-DsRed expression and DsRed fluorescence was assessed using a high content analysis (HCA) system.
The DsRed fluorescence of ΔK280 tauRD-DsRed fusion protein was used to reflect the aggregation condition of ΔK280 tauRD. Misfolding of fused DsRed occurred when ΔK280 tauRD aggregated, and thus decreasing the DsRed fluorescence. Accordingly, inhibition of ΔK280 tauRD aggregation may improve the DsRed misfolding and increase DsRed fluorescence.

[2] = test system: ΔK280 tauRD-DsRed 293 cells; assay: ROS level (DCFH-DA, flow cytometry) in induced ΔK280 tauRD-DsRed 293 cells; format: cell-based, human; conditions: 10 μM, 8 h pretreatment, Dox 3 days
Protocol: (§1) ΔK280 tauRD-DsRed 293 cells were seeded into 12-well plates, grown for 24 h, and pretreated with 10 μM of congo red, compound (A), compound (B), and compound (C) respectively for 8 h. Then, doxycycline (1 μg/mL) was added for 3 days to induce ΔK280 tauRD-DsRed expression.
Next, uninduced cells, doxycycline-induced but compound-untreated cells, and doxycycline-induced and compound-treated cells were incubated with 2′,7′-dichlorodihydrofluorecein diacetate (DCFH-DA) in 37° C. for 30 minutes, and then washed with PBS. The excited green fluorescence intensity under 492-495/517-527 nm of excitation/emission wavelength was measured using flow cytometry (BD) to evaluate the ROS level.

caspase 3 = assay: Caspase 3 activity (Ac-DEVD-AMC) in induced ΔK280 tauRD-DsRed 293 cells; format: cell-based, human; conditions: 10 μM, 8 h pretreatment, Dox 3 days
Protocol: as §1
In addition, the caspase 3 activity of uninduced cells, doxycycline-induced but compound-untreated cells, and doxycycline-induced and compound-treated cells were measured using Caspase 3 Assay Kit (Sigma). 10^6 cells in each group were harvested and 100 μL of lysis buffer was added, incubated on the ice for 20 minutes, and then, Ac-DEVD-AMC substrate was added into each group. The release of the fluorescent AMC was recorded under 360/460 nm of excitation/emission wavelength using an FLx800 microplate fluorescence reader (Bio-Tek). The caspase 3 activity was calculated using an AMC standard curve.

[3] = test system: ΔK280 tauRD-DsRed SH-SY5Y cells; assay: Neurite growth in induced ΔK280 tauRD-DsRed SH-SY5Y cells; format: cell-based, human; conditions: 10 μM, 8 h pretreatment, Dox 7 days, retinoic acid-differentiated
Protocol: ΔK280 tauRD-DsRed SH-SY5Y tauRD-DsRed cells were seeded in 6-well plate (1×10^5/well) in a medium containing all-trans retinoic acid (10 μM), grown for 24 h, and pretreated with 10 μM of congo red, compound (A), compound (B), and compound (C) for 8 h; after which, ΔK280 tauRD-DsRed expression was induced with 1 μg/mL doxycycline for 7 days. The cells were then fixed in 4% paraformaldehyde, permeabilized with 0.1% Triton X-100, blocked in 3% BSA, stained with the primary antibody anti-TUBB3 (against neuronal Class III β-tubulin) (1:1000; Convance) and with a secondary anti-rabbit Alexa Fluor® 555 antibody (1:500; Molecular Probes), and then incubated at room temperature for 3 h. Nuclei were counterstained with 4′,6-diamidino-2-phenylindole (DAPI). The total outgrowth in the untreated cells, cells treated with congo red, compound (A), compound (B), and compound (C) were assessed using MetaMorph image acquisition and analysis software.

[4] = MTT cytotoxicity in HEK-293 cells; format: cell-based; conditions: human, 24 h treatment, read-out: half maximal inhibitory concentration (IC50), cytotoxicity
Protocol: (§2) The HEK-293 cells and SH-SY5Y cells were seeded into a 48-well plate (5×10^4), grown for 24 h, and treated with 0.1 μM, 1 μM, 10 μM, 100 μM of compound (A), compound (B), or compound (C) individually for 24 h. Then 20 μL of MTT (5 mg/mL dissolved in PBS) was added for 2 h and the full wavelength microplate spectrophotometer was used for detecting the absorbance of the purple formazan at 570 nm.
(§3) As a result, the cytotoxicities of compound (A), compound (B), and compound (C) are low and not harmful to the cells.

[5] = MTT cytotoxicity in SH-SY5Y cells; format: cell-based; conditions: human, 24 h treatment, read-out: half maximal inhibitory concentration (IC50), cytotoxicity
Protocol: as §2, §3

T1 sequence (P10636 with tags, fused parts or gaps isoform P10636-8 DEL280-280): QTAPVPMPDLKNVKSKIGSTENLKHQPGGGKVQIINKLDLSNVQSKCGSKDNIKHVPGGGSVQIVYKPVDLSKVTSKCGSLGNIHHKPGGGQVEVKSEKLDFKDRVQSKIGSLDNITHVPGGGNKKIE

Nc1c(/N=N/c2ccc(-c3ccc(/N=N/c4cc(S(=O)(=O)O)c5ccccc5c4N)cc3)cc2)cc(S(=O)(=O)O)c2ccccc12 [congo red]
IC50 at 80 h [1]: 60 µM
DsRed fluorescence intensity relative to untreated cells (100%) (ΔK280 tauRD-DsRed; 10 μM): 108%
ROS level (uninduced cells 100%; induced untreated 110%) [2]: 93%
caspase 3 activity (uninduced cells 100%; induced untreated 129%) (caspase 3): 63%
neurite growth (uninduced cells 100%; induced untreated 89%) [3]: 99%

CCOC(=O)[C@@H]1OC(O)[C@H](C)[C@@H](c2ccc(OC)cc2)[C@@H]1[N+](=O)[O-] (some centres unmarked) [compound (A)]
IC50 at 80 h [1]: 32 µM
DsRed fluorescence intensity relative to untreated cells (100%) (ΔK280 tauRD-DsRed; 1-10 μM): 105-110%
IC50 at 24 h [4]: 128 µM
IC50 at 24 h [5]: 267 µM

CCOC(=O)[C@@H]1OC(O)[C@H](C)[C@@H](c2cccs2)[C@@H]1[N+](=O)[O-] (some centres unmarked) [compound (B)]
IC50 at 80 h [1]: 42 µM
DsRed fluorescence intensity relative to untreated cells (100%) (ΔK280 tauRD-DsRed; 10 μM): 111%
IC50 at 24 h [4]: 135 µM
IC50 at 24 h [5]: 273 µM

CCOC(=O)[C@@H]1OC(O)[C@H](C)[C@@H](c2ccccc2)[C@@H]1[N+](=O)[O-] (some centres unmarked) [compound (C)]
IC50 at 80 h [1]: 42 µM
DsRed fluorescence intensity relative to untreated cells (100%) (ΔK280 tauRD-DsRed; 1-10 μM): 106-113%
IC50 at 24 h [4]: 135 µM
IC50 at 24 h [5]: 275 µM
